Test results: patent US8642799B2, “Cysteine protease inhibitors for the treatment of parasitic diseases” (Merck Canada Inc., priority 2007, dated 2014)

Biological target: cruzipain (Trypanosoma cruzi, UniProt P25779)
Assay: biochemical
Conditions: 50 pM cruzipain, pH 5.5, 15 minutes preincubation, 2 μM Z-Phe-Arg-AMC substrate
Protocol: The assay solutions were mixed and incubated for 15 minutes at room temperature prior to the addition of 2 μM of Z-Phe-Arg-AMC substrate. […] Percent of inhibition were calculated by fitting experimental values to standard mathematical model for dose response curve.

cruzipain, sequence (P25779 123-467): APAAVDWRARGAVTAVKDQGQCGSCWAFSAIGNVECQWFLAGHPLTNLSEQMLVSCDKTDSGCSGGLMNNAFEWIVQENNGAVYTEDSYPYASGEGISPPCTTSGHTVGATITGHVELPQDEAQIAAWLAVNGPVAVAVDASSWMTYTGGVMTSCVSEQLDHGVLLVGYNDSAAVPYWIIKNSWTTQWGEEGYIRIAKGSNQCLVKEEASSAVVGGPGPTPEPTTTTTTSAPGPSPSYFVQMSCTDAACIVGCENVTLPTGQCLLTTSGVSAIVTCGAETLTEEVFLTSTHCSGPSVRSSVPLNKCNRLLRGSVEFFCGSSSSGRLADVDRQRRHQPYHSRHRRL

| IC50 [nM] | SMILES |
| --- | --- |
| 120 | CC(C)(F)C[C@H](N[C@@H](c1ccc(-c2ccc(S(C)(=O)=O)cc2)cc1)C(F)(F)F)C(=O)N[C@H](C#N)Cc1cc[n+]([O-])cc1 [Example 75, (S)-4-Fluoro-4-methyl-2-[(S)-2,2,2-trifluoro-1-(4′-methanesulfonyl-biphenyl-4-yl)-ethylamino]-pentanoic acid [(S)-cyano-(1-oxy-pyridin-4-ylmethyl)-methyl]-amide] |
| 12.6 | CC(C)(F)C[C@H](N[C@@H](c1ccc(-c2ccc(S(C)(=O)=O)cc2)cc1)C(F)(F)F)C(=O)N[C@H](C#N)Cc1cccnc1 [Example 64, (S)-4-Fluoro-4-methyl-2-[(S)-2,2,2-trifluoro-1-(4′-methanesulfonyl-biphenyl-4-yl)-ethylamino]-pentanoic acid ((S)-cyano-pyridin-3-ylmethyl-methyl)-amide] |
| 8.4 | CC(C)(F)C[C@H](N[C@@H](c1ccc(-c2ccc([C@@H](O)C(F)F)cc2)cc1)C(F)(F)F)C(=O)N[C@H](C#N)Cc1ccc(S(C)(=O)=O)cc1 [Example 20, (S)-2-{(S)-1-[4′-((R)-2,2-Difluoro-1-hydroxy-ethyl)-biphenyl-4-yl]-2,2,2-trifluoro-ethylamino}-4-fluoro-4-methyl-pentanoic acid [(S)-1-cyano-2-(4-methanesulfonyl-phenyl)-ethyl]-amide] |
| 20 | CC(C)(F)C[C@H](N[C@@H](c1ccc(-c2ccc(C3(c4ncon4)CC3)cc2)cc1)C(F)(F)F)C(=O)N[C@H](C#N)Cc1ccccc1 [Example 29, (S)-4-Fluoro-4-methyl-2-{(S)-2,2,2-trifluoro-1-[4′-(1-[1,2,4]oxadiazol-3-yl-cyclopropyl)-biphenyl-4-yl]-ethylamino}-pentanoic acid ((S)-1-cyano-2-phenyl-ethyl)-amide] |

The next lines start with the molecule.

| SMILES | IC50 [nM] |
| --- | --- |
| CC(C)[C@H](N[C@@H](c1ccc(Br)cc1)C(F)(F)F)C(=O)N[C@H](C#N)Cc1ccccc1 [Example 40, (S)-2-[(S)-1-(4-Bromo-phenyl)-2,2,2-trifluoro-ethylamino]-N-((S)-1-cyano-2-phenyl-ethyl)-3-methyl-butyramide] | 10.5 |
| CC(C)(F)C[C@H](N[C@@H](c1ccc(-c2ccc([C@@H](O)C(F)F)cc2)cc1)C(F)(F)F)C(=O)N[C@H](C#N)Cc1ccc(C#N)cc1F [Example 32, (S)-2-{(S)-1-[4′-((R)-2,2-Difluoro-1-hydroxy-ethyl)-biphenyl-4-yl]-2,2,2-trifluoro-ethylamino}-4-fluoro-4-methyl-pentanoic acid [(S)-cyano-(4-cyano-2-fluoro-benzyl)-methyl]-amide] | 0.9 |
| CC(C)[C@H](N[C@@H](c1ccc(-c2ccc(S(C)(=O)=O)cc2)cc1)C(F)(F)F)C(=O)N[C@H](C#N)Cc1c(F)cc(Br)cc1F [Example 70, (S)-N-[(S)-(4-Bromo-2,6-difluoro-benzyl)-cyano-methyl]-3-methyl-2-[(S)-2,2,2-trifluoro-1-(4′-methanesulfonyl-biphenyl-4-yl)-ethylamino]-butyramide] | 0.6 |
| CC(C)(F)C[C@H](N[C@@H](c1ccc(-c2ccc(S(C)(=O)=O)cc2)cc1)C(F)(F)F)C(=O)NC(C#N)Cc1ccc(F)cc1F (stereo partly drawn) [Example 34, (S)-4-Fluoro-4-methyl-2-[(S)-2,2,2-trifluoro-1-(4′-methanesulfonyl-biphenyl-4-yl)-ethylamino]-pentanoic acid [cyano-(2,4-difluoro-benzyl)-methyl]-amide] | 2.6 |
| CC(C)(F)C[C@H](N[C@@H](c1ccc(-c2ccc(S(C)(=O)=O)cc2)cc1)C(F)(F)F)C(=O)N[C@H](C#N)Cc1c(F)cc(C#N)cc1F [Example 67, (S)-4-Fluoro-4-methyl-2-[(S)-2,2,2-trifluoro-1-(4′-methanesulfonyl-biphenyl-4-yl)-ethylamino]-pentanoic acid [(S)-cyano-(4-cyano-2,6-difluoro-benzyl)-methyl]-amide] | 0.9 |
